From US20150175599A1, “FAAH Inhibitors” (Ironwood Pharmaceuticals, Inc., priority 2010, published 2015)

Assays:
hERG channel = biological target: T1, hERG channel (Homo sapiens, UniProt Q12809); test: hERG channel inhibition, automated patch clamp (IonWorks HT, hERG-CHO); format: cell-based; conditions: CHO cells expressing hERG, 600 s incubation; for inhibition at 600 s, 1 µM: 1 μM compound, read-out: hERG Channel Inhibition % (at 1 μM), vehicle-subtracted values; for inhibition at 600 s, 10 µM: 10 μM compound, read-out: hERG Channel Inhibition % (at 10 μM), vehicle-subtracted values
T1 construct: expressed in transfected cells; host or cells: CHO (hERG-CHO), under Geneticin selection
Outline: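 hERG-CHO cells held at 30 °C for 48 h before IonWorks HT patch clamp: from −80 mV to +40 for 2 s, then −50 mV for 2 s tail, repeated three times, before and after 600 s compound exposure. Third-pulse post/pre tail amplitude ratio gave percent inhibition; cells with seal <50 MOhm or tail <250 pA excluded.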

[1] = Pharmacokinetic study, plasma level 2 hours after oral dosing in rats; format: in vivo
Outline: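 Rats dosed by oral gavage in 1% DMA/99% Vitamin E TPGS; EDTA plasma taken by retro-orbital bleed 2 h post-dose. Acetonitrile precipitation with internal standard, LC/MS/MS quantitation against plasma standards 0.1–3000 ng/mL.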

T1 sequence (Q12809 whole entry): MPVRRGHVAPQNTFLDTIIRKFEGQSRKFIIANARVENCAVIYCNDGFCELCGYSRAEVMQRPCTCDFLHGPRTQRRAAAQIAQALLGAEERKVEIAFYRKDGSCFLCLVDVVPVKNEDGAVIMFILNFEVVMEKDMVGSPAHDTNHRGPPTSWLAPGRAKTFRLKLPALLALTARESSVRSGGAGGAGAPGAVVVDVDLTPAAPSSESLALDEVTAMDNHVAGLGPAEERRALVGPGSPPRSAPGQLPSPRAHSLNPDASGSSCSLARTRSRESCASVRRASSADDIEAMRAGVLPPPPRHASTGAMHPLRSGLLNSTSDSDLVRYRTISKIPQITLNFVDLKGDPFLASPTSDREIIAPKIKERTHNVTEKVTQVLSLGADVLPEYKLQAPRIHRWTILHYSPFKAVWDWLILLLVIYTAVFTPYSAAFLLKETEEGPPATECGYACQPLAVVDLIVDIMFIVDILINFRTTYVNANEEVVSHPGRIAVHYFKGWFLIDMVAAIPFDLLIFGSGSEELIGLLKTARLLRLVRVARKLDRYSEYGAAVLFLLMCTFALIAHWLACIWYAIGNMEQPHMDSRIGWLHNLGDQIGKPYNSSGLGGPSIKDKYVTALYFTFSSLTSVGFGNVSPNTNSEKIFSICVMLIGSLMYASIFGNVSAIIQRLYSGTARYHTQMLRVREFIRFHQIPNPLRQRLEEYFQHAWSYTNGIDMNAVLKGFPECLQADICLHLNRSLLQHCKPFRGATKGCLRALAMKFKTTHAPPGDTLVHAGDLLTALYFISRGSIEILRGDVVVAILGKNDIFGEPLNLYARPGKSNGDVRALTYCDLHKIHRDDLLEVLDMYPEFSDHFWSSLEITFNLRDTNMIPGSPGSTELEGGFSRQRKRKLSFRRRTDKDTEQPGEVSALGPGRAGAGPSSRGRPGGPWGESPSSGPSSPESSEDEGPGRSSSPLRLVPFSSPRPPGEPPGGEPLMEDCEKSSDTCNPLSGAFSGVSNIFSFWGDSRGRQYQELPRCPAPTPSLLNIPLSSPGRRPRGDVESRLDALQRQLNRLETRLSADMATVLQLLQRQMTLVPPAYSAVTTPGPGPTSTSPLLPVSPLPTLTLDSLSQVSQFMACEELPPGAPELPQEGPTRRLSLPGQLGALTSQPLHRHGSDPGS

SMILES	inhibition at 600 s, 1 µM (hERG channel) [%]	inhibition at 600 s, 10 µM (hERG channel) [%]	2 hr plasma level-ng/mL (rat, 10 mg/kg PO, 2 hr) [1]
COc1cc(NC(=O)C(=O)c2c(C)n(Cc3ccc(Cl)cc3)c3cccnc23)ccn1 [Compound 3, 2-(1-(4-chlorobenzyl)-2-methyl-1H-pyrrolo[3,2-b]pyridin-3-yl)-N-(2-methoxypyridin-4-yl)-2-oxoacetamide]	< 25	25 to 50	–
COc1ccc2c(c1)c(C(=O)C(=O)Nc1ccnc(OC)c1)c(C)n2Cc1cccnc1 [Compound 78, 2-(5-methoxy-2-methyl-1-(pyridin-3-ylmethyl)-1H-indol-3-yl)-N-(2-methoxypyridin-4-yl)-2-oxoacetamide]	< 25	25 to 50	–
COc1ccc2c(c1)c(C(=O)C(=O)Nc1ccnc(OC)c1)c(C)n2Cc1ccc(Cl)cn1 [Compound 79, 2-(1-((5-chloropyridin-2-yl)methyl)-5-methoxy-2-methyl-1H-indol-3-yl)-N-(2-methoxypyridin-4-yl)-2-oxoacetamide]	< 25	< 25	D (D = greater than 1000 nM)
COc1cc(NC(=O)C(=O)c2c(C)n(Cc3ccc(Cl)cc3)c3cc(OC)c(Cl)cc23)ccn1 [Compound 80, 2-(5-chloro-1-(4-chlorobenzyl)-6-methoxy-2-methyl-1H-indol-3-yl)-N-(2-methoxypyridin-4-yl)-2-oxoacetamide]	< 25	< 25	–
COc1ccc2c(c1)c(C(=O)C(=O)Nc1ccnc(OC)c1)c(C)n2Cc1ncc(F)cc1F [Compound 81, 2-(1-((3,5-difluoropyridin-2-yl)methyl)-5-methoxy-2-methyl-1H-indol-3-yl)-N-(2-methoxypyridin-4-yl)-2-oxoacetamide]	< 25	< 25	D (D = greater than 1000 nM)
COc1ccc2c(c1)c(C(=O)C(=O)Nc1ccnc(OC)c1)c(C)n2Cc1ncc(Cl)cc1Cl [Compound 82, 2-(1-((3,5-dichloropyridin-2-yl)methyl)-5-methoxy-2-methyl-1H-indol-3-yl)-N-(2-methoxypyridin-4-yl)-2-oxoacetamide]	< 25	< 25	D (D = greater than 1000 nM)
COc1ccc2c(c1)c(C(=O)C(=O)Nc1ccnc(OC)c1)c(C)n2Cc1ccc(C)cn1 [Compound 84, 2-(5-methoxy-2-methyl-1-((5-methylpyridin-2-yl)methyl)-1H-indol-3-yl)-N-(2-methoxypyridin-4-yl)-2-oxoacetamide]	< 25	< 25	D (D = greater than 1000 nM)
COc1cc(NC(=O)C(=O)c2c(C)n(Cc3ccc(F)cn3)c3ccc(C)cc23)ccn1 [Compound 85, 2-(1-((5-fluoropyridin-2-yl)methyl)-2,5-dimethyl-1H-indol-3-yl)-N-(2-methoxypyridin-4-yl)-2-oxoacetamide]	< 25	25 to 50	D (D = greater than 1000 nM)
COc1ccc2c(c1)c(C(=O)C(=O)Nc1ccnc(OC)c1)c(C)n2Cc1ccc(Cl)nn1 [Compound 86, 2-(1-((6-chloropyridazin-3-yl)methyl)-5-methoxy-2-methyl-1H-indol-3-yl)-N-(2-methoxypyridin-4-yl)-2-oxoacetamide]	–	–	D (D = greater than 1000 nM)
COc1ccc2c(c1)c(C(=O)C(=O)Nc1ccnc(OC)c1)c(C)n2Cc1ncc(Cl)cc1F [Compound 87, 2-(1-((5-chloro-3-fluoropyridin-2-yl)methyl)-5-methoxy-2-methyl-1H-indol-3-yl)-N-(2-methoxypyridin-4-yl)-2-oxoacetamide]	< 25	< 25	D (D = greater than 1000 nM)
COc1cc(NC(=O)C(=O)c2c(C)n(Cc3ccc(Cl)cc3)c3cc(F)c(C)cc23)ccn1 [Compound 89, 2-(1-(4-chlorobenzyl)-6-fluoro-2,5-dimethyl-1H-indol-3-yl)-N-(2-methoxypyridin-4-yl)-2-oxoacetamide]	< 25	< 25	C (C = between 100 nM and 1000 nM)
COc1cc(NC(=O)C(=O)c2c(C)n(Cc3ccc(Cl)cn3)c3cc(F)c(C)cc23)ccn1 [Compound 90, 2-(1-((5-chloropyridin-2-yl)methyl)-6-fluoro-2,5-dimethyl-1H-indol-3-yl)-N-(2-methoxypyridin-4-yl)-2-oxoacetamide]	< 25	< 25	D (D = greater than 1000 nM)
COc1cc(NC(=O)C(=O)c2c(C)n(Cc3ccc(Cl)cc3Cl)c3cc(F)c(OC)cc23)ccn1 [Compound 92, 2-(1-(2,4-dichlorobenzyl)-6-fluoro-5-methoxy-2-methyl-1H-indol-3-yl)-N-(2-methoxypyridin-4-yl)-2-oxoacetamide]	< 25	< 25	–
COc1cc(NC(=O)C(=O)c2c(C)n(Cc3ccc(Cl)cc3)c3cc(Cl)c(C)cc23)ccn1 [Compound 93, 2-(6-chloro-1-(4-chlorobenzyl)-2,5-dimethyl-1H-indol-3-yl)-N-(2-methoxypyridin-4-yl)-2-oxoacetamide]	< 25	< 25	C (C = between 100 nM and 1000 nM)
COc1cc(NC(=O)C(=O)c2c(C)n(Cc3ccc(Cl)cn3)c3cc(Cl)c(C)cc23)ccn1 [Compound 94, 2-(6-chloro-1-((5-chloropyridin-2-yl)methyl)-2,5-dimethyl-1H-indol-3-yl)-N-(2-methoxypyridin-4-yl)-2-oxoacetamide]	< 25	< 25	D (D = greater than 1000 nM)
